The target of series [1] is CYP1A2 (Homo sapiens, UniProt P05177). Description: CYP inhibition, human liver microsomes. As to conditions: CYP1A2, melatonin to 6-OH-melatonin, 10 µM. A general note: Microsomes from liver hold many membrane-bound enzymes, among them those of drug oxidation.
Series [2] concerns the target T1, Y1 (h) (Homo sapiens, UniProt P25929).
T1 construct: Cerep
Description: Radioligand binding.

Series [3] deals with P. falciparum strain 3D7. Description: Growth inhibition assay. The class given is cell-based. Conditions: Plasmodium falciparum.
In series [4] the target is T2, 5-HT6 (h) (Homo sapiens, UniProt P50406).
T2 construct: Cerep (contract screening)
Description: Radioligand binding.

Series [5] deals with early stage (I–III) gametocytes, NF54^Pfs16. Description: Gametocytocidal activity, luciferase assay. The class given is cell-based. Conditions: Plasmodium falciparum, 72 h. As to the method: (§1) Activity against early- and late-stage gametocytes was determined in miniaturized 384-wells plate assays as previously described. Briefly, gametocytes from a recombinant line NF54^Pfs16, expressing a green fluorescent protein–luciferase reporter gene under the gametocyte-specific Pfs16 promoter were induced and purified as previously described; gametocytes were then treated either on day 1 (stage I gametocytes) or day 8 of gametocytogenesis (stage IV gametocytes) with serially diluted SC81458 or SC83288 to achieve a final top concentration of 40 μM (0.4% dimethylsulphoxide(DMSO)). After 72 h of incubation, gametocyte inhibition was assessed by luminometry, after addition of Steadylite plus luciferase detection kit (PerkinElmer) to the plate wells[58][59].

Series [6] relates to late stage (IV and V) gametocytes, NF54^Pfs16. Description: Gametocytocidal activity, luciferase assay. The class given is cell-based. As to conditions: Plasmodium falciparum, 72 h. Here is the method: as §1
The target in series [7] is T3, M1 (h) (Homo sapiens, UniProt P11229).
T3 construct: Cerep
The class given is binding.

For series [8], the system named is 401 human kinases. Description: Kinase competition assay, whole panel. The class given is binding. As to conditions: 10 μM. As to the method:
The KINOMEscan was carried out by Ambit (San Diego, USA) according to a previously established protocol. The experiment was based on a competition binding assay that quantitatively measures the ability of a compound to compete with an immobilized, active-site directed ligand. The assay is performed by combining three components: DNA-tagged kinase; immobilized ligand; and a test compound. The ability of the test compound to compete with the immobilized ligand is measured via quantitative PCR of the DNA tag.
For most assays, kinase-tagged T7 phage strains were grown in parallel in 24-well blocks in an Escherichia coli host derived from the BL21 strain. E. coli were grown to log-phase and infected with T7 phage from a frozen stock and incubated with shaking at 32 °C until lysis (90–150 min). The lysates were centrifuged (6,000g) and filtered (0.2 μm) to remove cell debris. The remaining kinases were produced in HEK-293 cells (Sigma Aldrich, catalogue number: 85120602) and subsequently tagged with DNA for quantitative PCR detection. […] The liganded beads were blocked with excess biotin and washed with blocking buffer (SeaBlock (Pierce), 1% bovine serum albumin, 0.05% Tween 20 and 1 mM dithiothreitol) to remove unbound ligand and to reduce non-specific phage binding. […] The kinase concentration in the eluates was measured by quantitative PCR.

In series [9] the test system is P. falciparum strain D10. Description: Growth inhibition assay. The class given is cell-based. As to conditions: Plasmodium falciparum.
Series [10] has as its system a1 (non-selective). Description: Radioligand binding. As to the method: (§2) The study was carried out by Cerep (Celle l'Evescault, France). An in vitro pharmacological profiling panel was designed to detect potential high-risk clinical adverse drug reactions. The panel comprised of 54 targets.
(§3) The specific ligand binding to the receptors was defined as the difference between the total binding and the non-specific binding determined in the presence of an excess of unlabelled ligand. Results were expressed as a per cent of control specific binding and as a per cent inhibition of control specific obtained in the presence of the test compounds. Results showing an inhibition (or stimulation) >50% were considered to represent significant effects of the test compounds. […] The IC50 values were determined by non-linear regression analysis of the competition curves generated with mean replicate values using Hill equation curve fitting. The inhibition constants (Ki) were calculated using the Cheng Prusoff equation.

Series [11] has as its system sst (non-selective). Description: Radioligand binding. As to the method: as §2, §3
Series [12] deals with Ca2+ channel (L, verapamil site). Description: Radioligand binding. Here is the method: as §2, §3
Series [13] concerns the target T4, 5-HT2B (h) (Homo sapiens, UniProt P41595).
T4 construct: Cerep (contract screening)
Description: Radioligand binding. As to the method:
as §2, §3

Series [14] concerns a2 (non-selective). Description: Radioligand binding. As to the method: as §2, §3
Series [15] can be described thus: Stability in cultured blood cell cultures. It is filed as in vitro ADME. Conditions: 2 μM, at least 6 h, 37 °C. Here is the method:
An enriched young trophozoite-stage culture of P. falciparum Dd2 was obtain by magnetic purification and allowed to recover for 1 h at 37 °C in RPMI 1640 medium (Life Technologies) enriched with 1% hypoxanthine (C.C.Pro GmbH) and […] (Life Technologies). The experiment was performed in a total volume of 300 μl, at a haematocrit of 50%, in presence or absence of 2 μM of SC81458 or SC83288, for 6 h at 37 °C under shaking conditions. Each sample was subsequently treated with 1.2 ml of ice-cold acetonitrile, incubated on ice for 10 min and centrifuged for 15 min at 6,000g at 4 °C. Supernatants were stored at −80 °C until mass spectrometric measurement.

Series [16] has as its target T5, AT1 (h) (Homo sapiens, UniProt P30556).
T5 construct: Cerep (contract study)
Description: Radioligand binding.

The target in series [17] is T6, b2 (h) (Homo sapiens, UniProt P30411).
T6 construct: Cerep (contract study)
It is filed as binding.

Series [18] in a line: Stability in physiological solutions. It is filed as physicochemical. Conditions: artificial gastric juice, simulated intestinal fluid, PBS, human plasma; 6 h at 37 °C. Here is the method:
SC81458 and SC83288 were soluble in water (890 and 940 μg ml^−1, respectively) and organic solvents. […] The compounds were stable in different physiological solutions, including artificial gastric juice, simulated intestinal fluid, phosphate-buffered saline and human plasma, when incubated for 6 h at 37 °C.

Series [19] concerns the target T7, CB1 (h) (Homo sapiens, UniProt P21554).
T7 construct: Cerep (contract study)
Description: Radioligand binding.

The target of series [20] is T8, 5-HT5a (h) (Homo sapiens, UniProt P47898).
T8 construct: Cerep (contract screening)
Description: Radioligand binding.

Series [21] in a line: In vitro metabolism in liver microsomes. Conditions: for remaining after 60 min of incubation: human liver microsomes, 10 μM; for microsomal CLint at 10 μM: human, liver microsomes.

Bounds are passed on as bounds.

T3 sequence (P11229 whole entry): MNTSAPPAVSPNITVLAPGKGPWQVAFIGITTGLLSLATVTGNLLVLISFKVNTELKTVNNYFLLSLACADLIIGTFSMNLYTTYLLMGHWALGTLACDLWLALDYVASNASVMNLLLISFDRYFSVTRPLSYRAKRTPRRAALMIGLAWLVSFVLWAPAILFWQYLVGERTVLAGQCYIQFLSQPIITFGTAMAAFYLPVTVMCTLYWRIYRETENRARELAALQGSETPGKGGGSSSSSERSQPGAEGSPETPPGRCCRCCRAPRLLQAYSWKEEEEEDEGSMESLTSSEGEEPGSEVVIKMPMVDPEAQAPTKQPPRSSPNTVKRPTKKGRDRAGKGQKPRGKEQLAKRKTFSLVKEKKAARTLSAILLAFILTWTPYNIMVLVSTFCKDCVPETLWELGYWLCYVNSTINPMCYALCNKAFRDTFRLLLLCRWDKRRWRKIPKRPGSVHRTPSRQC
T6 sequence (P30411 whole entry): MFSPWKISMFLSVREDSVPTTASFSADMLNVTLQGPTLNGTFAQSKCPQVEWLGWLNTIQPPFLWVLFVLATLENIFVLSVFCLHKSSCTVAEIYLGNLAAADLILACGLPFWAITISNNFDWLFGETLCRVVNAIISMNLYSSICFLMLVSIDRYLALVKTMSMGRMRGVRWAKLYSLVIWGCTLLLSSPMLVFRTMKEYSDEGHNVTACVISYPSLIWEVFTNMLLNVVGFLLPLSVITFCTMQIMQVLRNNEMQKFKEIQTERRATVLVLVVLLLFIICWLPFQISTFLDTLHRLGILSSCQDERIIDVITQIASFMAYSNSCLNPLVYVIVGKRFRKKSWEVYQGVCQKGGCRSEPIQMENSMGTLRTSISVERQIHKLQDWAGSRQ
T7 sequence (P21554 whole entry): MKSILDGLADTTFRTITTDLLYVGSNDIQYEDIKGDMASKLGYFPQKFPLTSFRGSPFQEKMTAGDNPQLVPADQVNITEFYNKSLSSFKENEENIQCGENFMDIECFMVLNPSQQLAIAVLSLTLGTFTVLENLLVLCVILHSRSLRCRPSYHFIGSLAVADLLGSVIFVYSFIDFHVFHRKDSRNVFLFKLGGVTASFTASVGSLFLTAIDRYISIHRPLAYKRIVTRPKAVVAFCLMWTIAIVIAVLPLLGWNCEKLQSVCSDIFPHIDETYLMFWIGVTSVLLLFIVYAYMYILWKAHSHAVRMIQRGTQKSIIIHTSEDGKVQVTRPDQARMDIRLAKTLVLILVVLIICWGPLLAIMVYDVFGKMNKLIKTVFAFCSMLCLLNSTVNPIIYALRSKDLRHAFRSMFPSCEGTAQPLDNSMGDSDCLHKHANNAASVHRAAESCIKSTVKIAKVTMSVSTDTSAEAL
Chain of CYP1A2 (P05177 whole entry): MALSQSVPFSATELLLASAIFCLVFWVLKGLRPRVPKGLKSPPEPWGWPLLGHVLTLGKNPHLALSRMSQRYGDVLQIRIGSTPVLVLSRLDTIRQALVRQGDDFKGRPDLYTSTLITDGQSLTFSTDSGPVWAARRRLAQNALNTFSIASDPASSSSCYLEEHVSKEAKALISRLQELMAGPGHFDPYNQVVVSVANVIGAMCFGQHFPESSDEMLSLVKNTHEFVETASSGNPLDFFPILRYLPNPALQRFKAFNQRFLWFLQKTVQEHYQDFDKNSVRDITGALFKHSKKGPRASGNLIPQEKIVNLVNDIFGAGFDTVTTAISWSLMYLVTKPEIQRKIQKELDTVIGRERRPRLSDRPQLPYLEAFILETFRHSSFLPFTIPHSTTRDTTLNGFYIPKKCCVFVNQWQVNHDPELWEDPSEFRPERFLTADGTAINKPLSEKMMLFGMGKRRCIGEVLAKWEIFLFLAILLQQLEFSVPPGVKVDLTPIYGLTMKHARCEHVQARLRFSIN
T5 sequence (P30556 whole entry): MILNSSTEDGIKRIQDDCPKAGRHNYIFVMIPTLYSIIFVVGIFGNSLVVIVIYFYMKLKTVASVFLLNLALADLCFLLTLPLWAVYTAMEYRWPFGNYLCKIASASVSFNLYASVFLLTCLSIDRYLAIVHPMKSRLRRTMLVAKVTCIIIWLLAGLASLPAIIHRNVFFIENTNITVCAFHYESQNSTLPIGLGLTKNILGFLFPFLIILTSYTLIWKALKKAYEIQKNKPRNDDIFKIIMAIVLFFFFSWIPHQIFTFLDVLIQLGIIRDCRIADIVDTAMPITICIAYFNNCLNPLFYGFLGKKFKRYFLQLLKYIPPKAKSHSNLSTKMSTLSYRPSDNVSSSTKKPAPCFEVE
T2 sequence (P50406 whole entry): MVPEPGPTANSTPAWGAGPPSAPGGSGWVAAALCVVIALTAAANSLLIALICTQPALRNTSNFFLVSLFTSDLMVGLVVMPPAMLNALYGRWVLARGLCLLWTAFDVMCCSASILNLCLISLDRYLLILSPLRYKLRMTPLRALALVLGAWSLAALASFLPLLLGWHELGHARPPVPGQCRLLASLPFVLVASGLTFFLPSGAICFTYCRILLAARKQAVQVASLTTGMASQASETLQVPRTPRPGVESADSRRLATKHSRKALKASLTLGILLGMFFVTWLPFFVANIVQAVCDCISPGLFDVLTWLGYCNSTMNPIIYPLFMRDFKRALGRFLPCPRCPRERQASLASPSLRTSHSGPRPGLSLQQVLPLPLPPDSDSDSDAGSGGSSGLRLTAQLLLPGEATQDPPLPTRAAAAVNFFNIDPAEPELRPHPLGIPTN
T1 sequence (P25929 whole entry): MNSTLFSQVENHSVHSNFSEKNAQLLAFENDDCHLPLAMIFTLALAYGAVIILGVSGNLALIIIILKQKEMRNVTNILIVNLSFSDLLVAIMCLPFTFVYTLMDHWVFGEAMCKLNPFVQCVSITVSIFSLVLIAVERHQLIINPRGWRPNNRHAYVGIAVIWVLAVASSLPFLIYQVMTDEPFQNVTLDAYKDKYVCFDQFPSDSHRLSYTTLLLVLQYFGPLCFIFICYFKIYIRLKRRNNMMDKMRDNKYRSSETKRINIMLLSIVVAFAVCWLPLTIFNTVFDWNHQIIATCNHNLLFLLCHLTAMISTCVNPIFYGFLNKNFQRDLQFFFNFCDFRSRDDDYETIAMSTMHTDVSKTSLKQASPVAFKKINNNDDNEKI
T4 sequence (P41595 whole entry): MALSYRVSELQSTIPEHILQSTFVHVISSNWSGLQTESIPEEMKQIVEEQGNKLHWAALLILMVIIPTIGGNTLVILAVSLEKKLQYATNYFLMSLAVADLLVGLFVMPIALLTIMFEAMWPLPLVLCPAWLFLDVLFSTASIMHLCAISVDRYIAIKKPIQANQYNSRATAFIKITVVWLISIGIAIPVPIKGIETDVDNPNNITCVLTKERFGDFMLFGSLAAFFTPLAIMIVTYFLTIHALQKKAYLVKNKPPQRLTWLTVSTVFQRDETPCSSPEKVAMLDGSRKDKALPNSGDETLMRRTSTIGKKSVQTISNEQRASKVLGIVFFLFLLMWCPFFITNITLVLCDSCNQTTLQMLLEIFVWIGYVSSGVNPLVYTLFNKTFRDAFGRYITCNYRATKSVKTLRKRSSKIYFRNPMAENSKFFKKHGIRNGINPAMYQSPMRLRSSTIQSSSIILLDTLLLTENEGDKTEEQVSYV
T8 sequence (P47898 whole entry): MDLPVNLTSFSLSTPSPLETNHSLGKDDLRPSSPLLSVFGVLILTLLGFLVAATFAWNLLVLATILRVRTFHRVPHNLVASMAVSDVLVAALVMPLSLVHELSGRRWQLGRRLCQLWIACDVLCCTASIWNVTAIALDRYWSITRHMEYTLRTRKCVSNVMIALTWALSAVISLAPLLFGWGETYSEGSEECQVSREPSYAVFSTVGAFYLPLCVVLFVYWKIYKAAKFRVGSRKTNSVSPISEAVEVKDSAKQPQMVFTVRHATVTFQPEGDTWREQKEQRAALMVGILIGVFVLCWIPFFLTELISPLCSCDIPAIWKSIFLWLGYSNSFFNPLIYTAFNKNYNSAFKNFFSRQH

The IC50 is the concentration that gives 50% inhibition. A higher IC50 goes with weaker potency in that assay. In general, microsomal CLint refers to the rate of metabolic loss divided by the concentration. `CCCCN1CCN(C(=N)c2cccc(NC(=O)Nc3ccc(S(=O)(=O)NCc4ccc(S(N)(=O)=O)cc4)cc3)c2)CC1` [SC81458, 4-(3-(3-((4-butylpiperazin-1-yl)(imino)methyl)phenyl)ureido)-N-(4-sulfamoylbenzyl) benzenesulfonamide] showed a Remaining enzyme activity in series [1] of 95%. Further, the “Inhibition of control specific binding” value in [2] is 0%; in [4], -2%; in series [7], 36%; in series [10], 21%; in series [11], -2%; in [12], 17%. Besides, the “Inhibition of control specific binding” value came out at 37% in series [13]; 21% in series [14]; 11% in series [16]; 7% in series [17]; 21% in series [19]; 1% in series [20]. Also, the IC50 in [3] is 13 ± 1 nM; in series [5] it was 76 ± 6 nM; in series [6] it was 1800 ± 200 nM; in series [9], 9 ± 4 nM. Besides, the “interference with 401 human kinases” value in series [8] is given as “did not interfere”. In addition, in series [15], the “stability in human red blood cells and P. falciparum cultures” value is given as “stable”. Also, the “stability in physiological solutions” value in series [18] is listed as “stable”. The “remaining after 60 min of incubation” value in series [21] is listed as “almost completely metabolized”. For the same compound, the microsomal CLint at 10 μM in series [21] (monkey) came out at 303 µL/min/mg.
In the case of `COC(=O)N1CCN(C(=N)c2cccc(NC(=O)Nc3ccc(S(=O)(=O)NCc4ccc(S(N)(=O)=O)cc4)cc3)c2)CC1` [SC83288, methyl 4-(imino(3-(3-(4-(N-(4-sulfamoylbenzyl)sulfamoyl)phenyl)ureido)phenyl)methyl) piperazine-1-carboxylate], the Remaining enzyme activity in series [1] is recorded as 97%. The “Inhibition of control specific binding” value was 0% in series [2]; 11% in series [4]; 75% in [7]; 9% in series [10]; 4% in [11]; 14% in series [12]. The “Inhibition of control specific binding” value in series [13] is given as 17%; in [14], 14%; in [16], 6%; in [17], -4%; in series [19] it was 1%; in [20], 16%. In addition, the 50% inhibitory concentration (IC50) is 8 ± 2 nM in series [3], 199 ± 30 nM in [5], greater than 30000 nM in series [6] and 5 ± 1 nM in [9]. Besides, the “interference with 401 human kinases” value in series [8] is given as “did not interfere”. Further, in series [15], the “stability in human red blood cells and P. falciparum cultures” value was “stable”. Besides, the “stability in physiological solutions” value in [18] is given as “stable”. In addition, the “remaining after 60 min of incubation” value in series [21] is given as 50%. This compound also came in with a microsomal CLint at 10 μM in series [21] of 75.8 ± 2.5 µL/min/mg.

Source of the values: paper PMC5290327, “SC83288 is a clinical development candidate for the treatment of severe malaria” (Nature Communications, 2017).
